From patent US20250296929A1, “NOVEL HEPATOSELECTIVE POLYADENYLATING POLYMERASES INHIBITORS AND THEIR METHOD OF USE” (BARUCH S. BLUMBERG INSTITUTE, priority 2021, published 2025)
pEC50: −log10 of the molar value.

Key:
OATP1B1 = target: T1, OATP1B1 (Homo sapiens, UniProt Q9Y6L6); assay: OATP1B1 transporter substrate uptake in OATP1B1-HEK293 cells; type: in vitro ADME; conditions: for Uptake Ratio (−/+Inhibitor): OATP1B1-HEK293 cells, inhibitor Rifamycin SV; for Uptake Ratio (Transporter(−Inhibitor)/Mock(−Inhibitor)): OATP1B1-HEK293 vs Mock (normal HEK293)
T1 construct: expressed in transfected cells; host or cells: HEK293
T1 sequence (Q9Y6L6 1-691): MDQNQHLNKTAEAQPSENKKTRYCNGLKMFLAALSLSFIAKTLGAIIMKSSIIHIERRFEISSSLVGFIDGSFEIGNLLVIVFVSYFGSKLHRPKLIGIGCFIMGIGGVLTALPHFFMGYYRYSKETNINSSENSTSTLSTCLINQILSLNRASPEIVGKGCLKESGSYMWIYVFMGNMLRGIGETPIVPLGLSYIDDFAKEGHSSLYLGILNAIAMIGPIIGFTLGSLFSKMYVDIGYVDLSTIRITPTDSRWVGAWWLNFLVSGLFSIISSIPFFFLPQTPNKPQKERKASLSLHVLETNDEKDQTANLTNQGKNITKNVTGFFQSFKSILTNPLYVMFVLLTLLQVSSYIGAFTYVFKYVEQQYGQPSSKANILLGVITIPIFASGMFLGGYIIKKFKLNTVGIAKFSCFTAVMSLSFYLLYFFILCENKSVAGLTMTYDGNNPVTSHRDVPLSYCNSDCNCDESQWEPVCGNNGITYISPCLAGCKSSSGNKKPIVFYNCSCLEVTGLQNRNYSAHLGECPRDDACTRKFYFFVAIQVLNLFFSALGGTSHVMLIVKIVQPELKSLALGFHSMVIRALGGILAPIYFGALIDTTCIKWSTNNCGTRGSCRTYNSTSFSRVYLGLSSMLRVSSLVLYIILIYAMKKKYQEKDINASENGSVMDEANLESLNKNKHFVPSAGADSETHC

OATP1B3 = target: T2, OATP1B3 (Homo sapiens, UniProt Q9NPD5); assay: OATP1B3 transporter substrate uptake in OATP1B3-HEK293 cells; type: in vitro ADME; conditions: for Uptake Ratio (−/+Inhibitor): OATP1B3-HEK293 cells, inhibitor Rifamycin SV; for Uptake Ratio (Transporter(−Inhibitor)/Mock(−Inhibitor)): OATP1B3-HEK293 vs Mock
T2 construct: expressed in transfected cells; host or cells: HEK293
T2 sequence (Q9NPD5 1-702): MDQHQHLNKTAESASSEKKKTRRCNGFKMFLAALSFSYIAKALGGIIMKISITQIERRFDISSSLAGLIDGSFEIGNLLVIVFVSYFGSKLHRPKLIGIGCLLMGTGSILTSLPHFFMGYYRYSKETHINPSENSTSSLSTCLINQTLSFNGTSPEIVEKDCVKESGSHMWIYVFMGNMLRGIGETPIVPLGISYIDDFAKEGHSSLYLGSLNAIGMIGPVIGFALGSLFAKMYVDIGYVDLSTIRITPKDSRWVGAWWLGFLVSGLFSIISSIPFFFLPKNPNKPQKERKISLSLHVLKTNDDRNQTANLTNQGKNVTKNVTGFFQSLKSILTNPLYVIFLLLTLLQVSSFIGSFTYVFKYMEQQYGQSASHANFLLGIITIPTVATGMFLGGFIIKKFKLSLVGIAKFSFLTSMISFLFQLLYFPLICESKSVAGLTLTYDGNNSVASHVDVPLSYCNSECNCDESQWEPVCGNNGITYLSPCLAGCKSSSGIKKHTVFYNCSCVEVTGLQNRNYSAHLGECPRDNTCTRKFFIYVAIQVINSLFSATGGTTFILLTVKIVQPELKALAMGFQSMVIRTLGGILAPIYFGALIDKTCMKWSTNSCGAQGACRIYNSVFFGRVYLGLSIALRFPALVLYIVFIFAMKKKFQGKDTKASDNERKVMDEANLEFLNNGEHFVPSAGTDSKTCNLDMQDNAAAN
Protocol: Protocol for identification of compounds that are substrates of transporters OATP1B1 and OATP1B3. Transfected HTEK293 and vector control HTEK293 cells were cultured in 24-well poly-D-lysine or collagen-coated tissue culture plates ([…]) for 2 and 10 minutes respectively in transport buffer (HIBSSg, pH 7.4, pre-warmed to 37° C.). At a defined time point, the uptake experiments were stopped by removing dosing solution followed by two washes of ice-cold HIBSSg buffer. The cells were lysed for 2 minutes with […] containing an appropriate internal standard (when available). Lysis buffer were chilled to −20° C., and the plate was kept on ice during lysis. The cell lysate was transferred into a 96-well plate for sample analysis with LC-MS/MS analysis to determine concentration of test compound in cell lysate. The uptake of test compounds was normalized by total cell protein using the BCA Protein Assay Kit following the manufacturer's protocol. The inhibitor Rifamycin SV was used to block OATP1B1 and OATP1B3 transporter activity in order to determine uptake ratios.

[1] = test system: woodchuck hepatitis virus (WHV); conditions: oral administration, woodchucks chronically infected with WHV; cited from earlier work
[2] = in words; cited from earlier work
HBV = conditions: oral treatment, HBV infected uPA-SCID mice harboring human hepatocytes; cited from earlier work
[3] = Cellular toxicity (CellTiter-Glo) in HepG2.2.15 cells; type: cell-based; conditions: human
Protocol: (§1) Cellular assays method 1: Cellular assays: The HBV producing cell line HepG2.2.15 was cultured in DMEM/F12 containing 10% fetal bovine serum (FBS), 100 U/ml penicillin and 100 μg/ml streptomycin (Invitrogen). Compounds of the disclosure in DMSO was added into the culture medium when cell reached 100% confluence. The final concentration of DMSO was adjusted to 0.5%. Culture medium was replaced in two days and the cell was cultured for additional two days in the presence of compound. HBsAg inhibition in culture medium was then detected with AlphaLisa assay using anti-HBsAg antibodies of 10-H05H and 60C-CR2100RB from Fitzgerald Internantional. To examine the change of nucleic acid, total RNA was extracted with Trizol reagents and resolved in glyoxal agarose gel. HBV RNA blotted onto nitrocellulose membrane was measured with P32 labeled ribo-probe. Reduction and shortening of viral RNA indicates on target effect of the tested compound. […] HepG2.2.15 cells were first seeded in 96-well plate (Corning, Cat #: CLS3595) at density of 10,000 cells/well in 100 ul DMEM/F12 medium containing 10% FBS. When cells reached 100% confluence, treatment with compounds of the disclosure was initiated, and cells were cultured in the way as described for HBsAg inhibition study. Four days post drug treatment, 100 ul of CellTiter-Glo reagents (Promega, Cat #G7570) were added into each well and the mixture was incubated at 23° C. for 12 minutes, followed by the reading of luminescent signal in Tecan's Infinite 200 PRO. Compound IC50 on HBsAg and CC50 on cell viability were calculated using Graphpad prism. The IC50 and CC50 are defined as the compound concentration (or conditioned media log dilution) at which HBsAg secretion and cytotoxicity, respectively, are reduced by 50% compared to the no drug control.
(§2) Cellular assays method 2: HepG2.2.15 cells were seeded in duplicate into white, 96-well plates at 1.5×10^4 cells/well. The cells were treated with a 3-fold serial dilution series of the compounds in DMSO. The final DMSO concentration in all wells was 1%, and DMSO was used as no drug control. The HBsAg chemiluminescence immunoassay (CLIA) kit (Autobio Diagnostics Co., Zhengzhou, China) was used to measure the levels of secreted HBV antigens semi-quantitatively. For the detection, 50 μL/well culture supernatant was used and the procedure conducted as directed by manufacturer's instructions. The cytotoxicity was measured using CellTiter-Glo (Promega, Madison, WI, USA, catalogue no. G7571). Dose-response curves were generated and the IC50 and CC50 values were calculated using Graphpad prism. The IC50 and CC50 are defined as the compound concentration (or conditioned media log dilution) at which HBsAg secrection and cytotoxicity, respectively, are reduced by 50% compared to the no drug control.

[4] = test system: HBsAg secretion, HBV producing cell line HepG2.2.15; assay: Cellular assay: HBsAg inhibition in HBV producing cell line HepG2.2.15; type: cell-based; conditions: Hepatitis B virus
Protocol: as §1, §2

| Compound | CC50 [3] | pEC50 [4] | other results |
| --- | --- | --- | --- |
| C[C@]12CC[C@@H]3c4ccc(O)cc4CC[C@H]3[C@@H]1CC[C@@H]2O[C@@H]1O[C@H](C(=O)O)[C@@H](O)[C@H](O)[C@H]1O [Estradiol 17-β Glucuronide] |  |  | Uptake Ratio (−/+Inhibitor) (OATP1B1; test concentration 10 μM): 81.84; Uptake Ratio (Transporter(−Inhibitor)/Mock(−Inhibitor)) (OATP1B1; test concentration 10 μM): 48.70; Uptake Ratio (−/+Inhibitor) (OATP1B3; test concentration 10 μM): 86.15; Uptake Ratio (Transporter(−Inhibitor)/Mock(−Inhibitor)) (OATP1B3; test concentration 10 μM): 98.86 |
| COCCCOc1cc2c(cc1OC)-c1cc(=O)c(C(=O)O)cn1[C@H](C(C)C)C2 [DHQ-1] |  |  | Reduction of WHV and surface protein in the blood [1]: multi-log reductions; Toxicity observed [2]: acute neurotoxicity liabilities; Uptake Ratio (−/+Inhibitor) (OATP1B1; test concentration 1 μM): 0.38; Uptake Ratio (Transporter(−Inhibitor)/Mock(−Inhibitor)) (OATP1B1; test concentration 1 μM): 0.71; Uptake Ratio (−/+Inhibitor) (OATP1B3; test concentration 1 μM): 0.42; Uptake Ratio (Transporter(−Inhibitor)/Mock(−Inhibitor)) (OATP1B3; test concentration 1 μM): 0.56; Reduction of HBsAg in the circulation (HBV): 1 log |
| COc1cc2c(cc1OCC(=O)O)C[C@@H](C(C)C)n1cc(C(=O)O)c(=O)cc1-2 [Example 1, (S)-9-(carboxymethoxy)-6-isopropyl-10-methoxy-2-oxo-6,7-dihydro-2H-pyrido [2,1-a]isoquinoline-3-carboxylic acid] | > 10 µM | 5.00 |  |
| COc1cc2c(cc1OCCCCCCCCC(=O)O)C[C@@H](C(C)C)n1cc(C(=O)O)c(=O)cc1-2 [Example 8, (S)-9-((8-carboxyoctyl)oxy)-6-isopropyl-10-methoxy-2-oxo-6,7-dihydro-2H-pyrido[2,1-a]isoquinoline-3-carboxylic acid] | > 10 µM | 8.34 |  |
| COc1cc2c(cc1OCCCCCCCC(=O)O)C[C@@H](C(C)C)n1cc(C(=O)O)c(=O)cc1-2 [Example 7, (S)-9-((7-carboxyheptyl)oxy)-6-isopropyl-10-methoxy-2-oxo-6,7-dihydro-2H-pyrido[2,1-a]isoquinoline-3-carboxylic acid] | > 10 µM | 8.12 |  |
| COc1cc2c(cc1OCCCC(=O)O)C[C@@H](C(C)C)n1cc(C(=O)O)c(=O)cc1-2 [Example 2, (S)-9-(3-carboxypropoxy)-6-isopropyl-10-methoxy-2-oxo-6,7-dihydro-2H-pyrido [2,1-a]isoquinoline-3-carboxylic acid] | > 10 µM | 6.00 |  |
| COc1cc2c(cc1OCCCCCC(=O)O)C[C@@H](C(C)C)n1cc(C(=O)O)c(=O)cc1-2 [Example 4, (S)-9-((5-carboxypentyl)oxy)-6-isopropyl-10-methoxy-2-oxo-6,7-dihydro-2H-pyrido[2,1-a]isoquinoline-3-carboxylic acid] | > 10 µM | 7.06 |  |
| COc1cc2c(cc1OCCCCC(=O)O)C[C@@H](C(C)C)n1cc(C(=O)O)c(=O)cc1-2 [Example 3, (S)-9-(4-carboxybutoxy)-6-isopropyl-10-methoxy-2-oxo-6,7-dihydro-2H-pyrido[2,1-a]isoquinoline-3-carboxylic acid] | > 10 µM | 6.42 |  |
| COc1cc2c(cc1OCCCOCC(=O)O)C[C@@H](C(C)C)n1cc(C(=O)O)c(=O)cc1-2 [Example 5, (S)-9-(3-(carboxymethoxy)propoxy)-6-isopropyl-10-methoxy-2-oxo-6,7-dihydro-2H-pyrido[2,1-a]isoquinoline-3-carboxylic acid] | > 10 µM | 5.56 |  |
